{"source": "PubChem BioAssay (NCI)", "assay_in_all_cases": "NCI tumour cell line growth inhibition, 384-well format", "key": {"[1]": {"system": "EKVX NSCLC"}, "[2]": {"system": "MDA-MB-468 breast"}, "[3]": {"system": "NCI-H226 lung"}, "[4]": {"system": "NCI/ADR-RES ovarian"}, "[5]": {"system": "MALME-3M melanoma"}, "[6]": {"system": "T-47D breast"}, "[7]": {"system": "RXF 393 renal"}, "[8]": {"system": "HS 578T breast"}, "[9]": {"system": "LOX IMVI melanoma"}, "[10]": {"system": "NCI-H460 NSCLC"}, "[11]": {"system": "TK-10 renal"}, "[12]": {"system": "A549 NSCLC"}, "[13]": {"system": "NCI-H322M lung"}, "[14]": {"system": "PC-3 prostate"}, "[15]": {"system": "HCT-15 colon"}, "[16]": {"system": "NCI-H522 lung"}, "[17]": {"system": "SR leukemia"}, "[18]": {"system": "M14 melanoma"}, "[19]": {"system": "CCRF-CEM leukemia"}, "[20]": {"system": "BT-549 breast"}, "[21]": {"system": "COLO 205 colon"}, "[22]": {"system": "IGROV1 ovarian"}, "[23]": {"system": "SF-539 CNS"}, "[24]": {"system": "SK-MEL-5 melanoma"}, "[25]": {"system": "SK-MEL-2 melanoma"}, "[26]": {"system": "OVCAR-5 ovarian"}, "[27]": {"system": "HCT-116 colon"}, "[28]": {"system": "SF-295 CNS"}, "[29]": {"system": "OVCAR-8 ovarian"}, "[30]": {"system": "HCC-2998 colon"}, "[31]": {"system": "HOP-62 NSCLC"}, "[32]": {"system": "OVCAR-3 ovarian"}, "[33]": {"system": "ACHN renal"}, "[34]": {"system": "HOP-92 NSCLC"}, "[35]": {"system": "OVCAR-4 ovarian"}, "[36]": {"system": "RPMI-8226 leukemia"}, "[37]": {"system": "MOLT-4 leukemia"}, "[38]": {"system": "SNB-19 CNS"}, "[39]": {"system": "SF-268 CNS"}, "[40]": {"system": "SW-620 colon"}, "[41]": {"system": "MDA-MB-435 melanoma"}, "[42]": {"system": "SK-MEL-28 melanoma"}, "[43]": {"system": "K-562 leukemia"}, "[44]": {"system": "SK-OV-3 ovarian"}, "[45]": {"system": "A498 renal"}, "[46]": {"system": "U251 glioblastoma"}, "[47]": {"system": "786-0 renal"}}, "note": "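GI50 marks 50% less growth. TGI: total growth inhibition.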"}
{"smiles": "FC(F)(F)c1ccc(CNc2ccc(Cc3c[nH]c4ncc(Cl)cc34)cn2)cn1", "values": [{"measurement": "GI50", "setting": "[1]", "value": 10.7, "unit": "µM"}, {"measurement": "TGI", "setting": "[1]", "value": 23.7, "unit": "µM"}, {"measurement": "GI50", "setting": "[2]", "value": 2.82, "unit": "µM"}, {"measurement": "TGI", "setting": "[2]", "value": 9.15, "unit": "µM"}, {"measurement": "GI50", "setting": "[3]", "value": 5.32, "unit": "µM"}, {"measurement": "TGI", "setting": "[3]", "value": 16.3, "unit": "µM"}, {"measurement": "GI50", "setting": "[4]", "value": 9.91, "unit": "µM"}, {"measurement": "TGI", "setting": "[4]", "value": 21.9, "unit": "µM"}, {"measurement": "GI50", "setting": "[5]", "value": 8.2, "unit": "µM"}, {"measurement": "TGI", "setting": "[5]", "value": 17.4, "unit": "µM"}, {"measurement": "GI50", "setting": "[6]", "value": 4.85, "unit": "µM"}, {"measurement": "TGI", "setting": "[6]", "value": 16.1, "unit": "µM"}, {"measurement": "GI50", "setting": "[7]", "value": 4.54, "unit": "µM"}, {"measurement": "TGI", "setting": "[7]", "value": 14.7, "unit": "µM"}, {"measurement": "GI50", "setting": "[8]", "value": 2.15, "unit": "µM"}, {"measurement": "TGI", "setting": "[8]", "value": 7.11, "unit": "µM"}, {"measurement": "GI50", "setting": "[9]", "value": 14.4, "unit": "µM"}, {"measurement": "TGI", "setting": "[9]", "value": 27.7, "unit": "µM"}, {"measurement": "GI50", "setting": "[10]", "value": 12.9, "unit": "µM"}, {"measurement": "TGI", "setting": "[10]", "value": 26.1, "unit": "µM"}, {"measurement": "GI50", "setting": "[11]", "value": 14.4, "unit": "µM"}, {"measurement": "TGI", "setting": "[11]", "value": 28.6, "unit": "µM"}, {"measurement": "GI50", "setting": "[12]", "value": 13.1, "unit": "µM"}, {"measurement": "TGI", "setting": "[12]", "value": 26.2, "unit": "µM"}, {"measurement": "GI50", "setting": "[13]", "value": 8.81, "unit": "µM"}, {"measurement": "TGI", "setting": "[13]", "value": 21.6, "unit": "µM"}, {"measurement": "GI50", "setting": "[14]", "value": 12.7, "unit": "µM"}, {"measurement": "TGI", "setting": "[14]", "value": 25.7, "unit": "µM"}, {"measurement": "GI50", "setting": "[15]", "value": 11.4, "unit": "µM"}, {"measurement": "TGI", "setting": "[15]", "value": 23.9, "unit": "µM"}, {"measurement": "GI50", "setting": "[16]", "value": 8.58, "unit": "µM"}, {"measurement": "TGI", "setting": "[16]", "value": 21, "unit": "µM"}, {"measurement": "GI50", "setting": "[17]", "value": 2.13, "unit": "µM"}, {"measurement": "TGI", "setting": "[17]", "value": 5.5, "unit": "µM"}, {"measurement": "GI50", "setting": "[18]", "value": 13.3, "unit": "µM"}, {"measurement": "TGI", "setting": "[18]", "value": 26.2, "unit": "µM"}, {"measurement": "GI50", "setting": "[19]", "value": 6.19, "unit": "µM"}, {"measurement": "TGI", "setting": "[19]", "value": 17.9, "unit": "µM"}, {"measurement": "GI50", "setting": "[20]", "value": 12.2, "unit": "µM"}, {"measurement": "TGI", "setting": "[20]", "value": 25.5, "unit": "µM"}, {"measurement": "GI50", "setting": "[21]", "value": 14.9, "unit": "µM"}, {"measurement": "TGI", "setting": "[21]", "value": 28.4, "unit": "µM"}, {"measurement": "GI50", "setting": "[22]", "value": 13.5, "unit": "µM"}, {"measurement": "TGI", "setting": "[22]", "value": 27.8, "unit": "µM"}, {"measurement": "GI50", "setting": "[23]", "value": 11.2, "unit": "µM"}, {"measurement": "TGI", "setting": "[23]", "value": 23.7, "unit": "µM"}, {"measurement": "GI50", "setting": "[24]", "value": 6.22, "unit": "µM"}, {"measurement": "TGI", "setting": "[24]", "value": 18.3, "unit": "µM"}, {"measurement": "GI50", "setting": "[25]", "value": 7.92, "unit": "µM"}, {"measurement": "TGI", "setting": "[25]", "value": 20.4, "unit": "µM"}, {"measurement": "GI50", "setting": "[26]", "value": 15.7, "unit": "µM"}, {"measurement": "TGI", "setting": "[26]", "value": 29.6, "unit": "µM"}, {"measurement": "GI50", "setting": "[27]", "value": 12.8, "unit": "µM"}, {"measurement": "TGI", "setting": "[27]", "value": 25.9, "unit": "µM"}, {"measurement": "GI50", "setting": "[28]", "value": 11.3, "unit": "µM"}, {"measurement": "TGI", "setting": "[28]", "value": 23.7, "unit": "µM"}, {"measurement": "GI50", "setting": "[29]", "value": 10.3, "unit": "µM"}, {"measurement": "TGI", "setting": "[29]", "value": 23.1, "unit": "µM"}, {"measurement": "GI50", "setting": "[30]", "value": 13.8, "unit": "µM"}, {"measurement": "TGI", "setting": "[30]", "value": 26.9, "unit": "µM"}, {"measurement": "GI50", "setting": "[31]", "value": 12.2, "unit": "µM"}, {"measurement": "TGI", "setting": "[31]", "value": 25.5, "unit": "µM"}, {"measurement": "GI50", "setting": "[32]", "value": 15.7, "unit": "µM"}, {"measurement": "TGI", "setting": "[32]", "value": 29.8, "unit": "µM"}, {"measurement": "GI50", "setting": "[33]", "value": 14.1, "unit": "µM"}, {"measurement": "TGI", "setting": "[33]", "value": 30.7, "unit": "µM"}, {"measurement": "GI50", "setting": "[34]", "value": 8.41, "unit": "µM"}, {"measurement": "TGI", "setting": "[34]", "value": 21.3, "unit": "µM"}, {"measurement": "GI50", "setting": "[35]", "value": 9.12, "unit": "µM"}, {"measurement": "TGI", "setting": "[35]", "value": 22.2, "unit": "µM"}, {"measurement": "GI50", "setting": "[36]", "value": 6.96, "unit": "µM"}, {"measurement": "TGI", "setting": "[36]", "value": 19.1, "unit": "µM"}, {"measurement": "GI50", "setting": "[37]", "value": 2.83, "unit": "µM"}, {"measurement": "TGI", "setting": "[37]", "value": 9.58, "unit": "µM"}, {"measurement": "GI50", "setting": "[38]", "value": 15.9, "unit": "µM"}, {"measurement": "TGI", "setting": "[38]", "value": 30.5, "unit": "µM"}, {"measurement": "GI50", "setting": "[39]", "value": 8.91, "unit": "µM"}, {"measurement": "TGI", "setting": "[39]", "value": 21.7, "unit": "µM"}, {"measurement": "GI50", "setting": "[40]", "value": 15.1, "unit": "µM"}, {"measurement": "TGI", "setting": "[40]", "value": 28.8, "unit": "µM"}, {"measurement": "GI50", "setting": "[41]", "value": 16.2, "unit": "µM"}, {"measurement": "TGI", "setting": "[41]", "value": 30.1, "unit": "µM"}, {"measurement": "GI50", "setting": "[42]", "value": 9, "unit": "µM"}, {"measurement": "TGI", "setting": "[42]", "value": 21.7, "unit": "µM"}, {"measurement": "GI50", "setting": "[43]", "value": 5.09, "unit": "µM"}, {"measurement": "TGI", "setting": "[43]", "value": 17.2, "unit": "µM"}, {"measurement": "GI50", "setting": "[44]", "value": 12, "unit": "µM"}, {"measurement": "TGI", "setting": "[44]", "value": 26, "unit": "µM"}, {"measurement": "GI50", "setting": "[45]", "value": 7.91, "unit": "µM"}, {"measurement": "TGI", "setting": "[45]", "value": 19.1, "unit": "µM"}, {"measurement": "GI50", "setting": "[46]", "value": 14.2, "unit": "µM"}, {"measurement": "TGI", "setting": "[46]", "value": 27.5, "unit": "µM"}, {"measurement": "GI50", "setting": "[47]", "value": 3.7, "unit": "µM"}, {"measurement": "TGI", "setting": "[47]", "value": 10.7, "unit": "µM"}]}
